# Results: article PMC8905313, “Overexpression of ABCB1 Associated With the Resistance to the KRAS-G12C Specific Inhibitor ARS-1620 in Cancer Cells” (Frontiers in Pharmacology, 2022)
# Molecular target: T1, ABCB1 (Homo sapiens, UniProt P08183)
# T1 construct: ABCB1 membrane vesicles
# Experiment: vanadate-sensitive ATPase stimulation in ABCB1 membrane vesicles; supported by HPLC efflux and [3H]-paclitaxel accumulation in KB-C2 cells
# Assay type: biochemical
# T1 sequence (P08183 whole entry): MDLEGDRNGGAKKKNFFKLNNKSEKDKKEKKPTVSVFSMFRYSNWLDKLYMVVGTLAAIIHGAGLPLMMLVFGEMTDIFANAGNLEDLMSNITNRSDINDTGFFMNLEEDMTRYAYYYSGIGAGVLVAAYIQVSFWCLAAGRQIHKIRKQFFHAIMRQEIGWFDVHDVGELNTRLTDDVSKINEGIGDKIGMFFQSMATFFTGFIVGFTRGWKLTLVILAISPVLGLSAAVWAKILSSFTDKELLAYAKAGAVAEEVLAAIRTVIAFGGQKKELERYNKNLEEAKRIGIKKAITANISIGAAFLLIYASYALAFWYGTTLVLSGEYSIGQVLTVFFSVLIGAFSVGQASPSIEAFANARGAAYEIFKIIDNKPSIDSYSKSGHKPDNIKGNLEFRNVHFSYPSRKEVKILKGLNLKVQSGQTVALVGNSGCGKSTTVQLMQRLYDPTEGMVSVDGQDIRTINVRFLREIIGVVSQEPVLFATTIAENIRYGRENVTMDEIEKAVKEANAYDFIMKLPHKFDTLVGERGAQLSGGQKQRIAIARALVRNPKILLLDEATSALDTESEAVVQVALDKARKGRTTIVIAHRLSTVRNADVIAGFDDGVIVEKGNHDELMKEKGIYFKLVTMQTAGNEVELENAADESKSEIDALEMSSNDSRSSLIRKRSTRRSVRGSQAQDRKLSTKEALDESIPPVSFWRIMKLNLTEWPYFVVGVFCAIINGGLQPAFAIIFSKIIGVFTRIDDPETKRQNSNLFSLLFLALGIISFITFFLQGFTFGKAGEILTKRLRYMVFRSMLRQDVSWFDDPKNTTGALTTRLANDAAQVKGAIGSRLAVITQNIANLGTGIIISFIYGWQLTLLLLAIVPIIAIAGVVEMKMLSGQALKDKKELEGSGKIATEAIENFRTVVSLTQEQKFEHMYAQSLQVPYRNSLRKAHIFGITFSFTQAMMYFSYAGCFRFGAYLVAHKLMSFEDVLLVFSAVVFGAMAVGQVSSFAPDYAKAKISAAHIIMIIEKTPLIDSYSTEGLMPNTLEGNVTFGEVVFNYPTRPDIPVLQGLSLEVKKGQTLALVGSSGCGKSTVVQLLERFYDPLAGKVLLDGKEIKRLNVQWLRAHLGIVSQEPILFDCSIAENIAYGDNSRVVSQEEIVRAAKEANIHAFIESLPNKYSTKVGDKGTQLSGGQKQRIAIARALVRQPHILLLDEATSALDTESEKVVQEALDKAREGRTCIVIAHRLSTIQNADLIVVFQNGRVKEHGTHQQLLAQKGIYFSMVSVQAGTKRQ
compound,measurement,value
C=CC(=O)N1CCN(c2ncnc3c(F)c(-c4c(O)cccc4F)c(Cl)cc23)CC1 [ARS-1620],EC50,14.8 µM
